Data: patent publication US9084766B2, “Compounds and compositions for targeting cancer stem cells” (Boston Biomedical, Inc., priority 2010, dated 2015)
Entries after “also recorded” stand apart in the source; their conditions may differ.

Assay: Phase I clinical trial: safety and adverse events
[1] = Phase I patients, 20-2000 mg/day oral
[2] = Phase I, dose escalated from 20 mg to 2000 mg/day

Protocol: A cycle consists of twice-daily oral administration of the compound for 4 weeks. Cycles were repeated every 4 weeks (28 days) until progression of disease, unacceptable toxicity, or another discontinuation criterion is met. The dose escalation trial was conducted as open label and multicenter trial. A modified Simon accelerated titration scheme was used for dose escalation.
The primary objective of the trial was to determine the safety, tolerability, and recommended phase II dose (RP2D). The secondary objectives of the trial were to determine the pharmacokinetic profile of the compound, pharmacodynamics of the compound, and preliminary antitumor activity of the compound.
The inclusion criteria included histologically or cytologically confirmed solid tumor that is metastatic, unresectable, or recurrent; ≧18 years of age; Measurable disease by RECIST; and Karnofsky≧70%. The exclusion criteria included chemotherapy, radiotherapy, immunotherapy or investigational agent within 4 weeks of first dose; surgery within 4 weeks of first dose; and known brain metastases.

CC(=O)c1cc2c(o1)C(=O)c1ccccc1C2=O [Compound 1, 2-acetyl-4H,9H-naphtho[2,3-b]furan-4,9-dione]
tolerability in humans (20 mg QD): good tolerability
tolerability in humans (500 mg TID): good tolerability
Anorexia, Any Grade, # of Events [1]: 4
Anorexia, Any Grade, % of Total [1]: 4.9%
Anorexia, Grade 1, # of Events [1]: 3
Anorexia, Grade 1, % of Total [1]: 3.7%
Anorexia, Grade 2, # of Events [1]: 1
Anorexia, Grade 2, % of Total [1]: 1.2%
Anorexia, Grade 3, # of Events [1]: 0
Anorexia, Grade 3, % of Total [1]: 0.0%
Diarrhea, Any Grade, # of Events [1]: 23
Diarrhea, Any Grade, % of Total [1]: 28.4%
Diarrhea, Grade 1, # of Events [1]: 20
Diarrhea, Grade 1, % of Total [1]: 24.7%
Diarrhea, Grade 2, # of Events [1]: 2
Diarrhea, Grade 2, % of Total [1]: 2.5%
Diarrhea, Grade 3, # of Events [1]: 2
Diarrhea, Grade 3, % of Total [1]: 2.5%
Dysgusia, Any Grade, # of Events [1]: 3
Dysgusia, Any Grade, % of Total [1]: 3.7%
Dysgusia, Grade 1, # of Events [1]: 3
Dysgusia, Grade 1, % of Total [1]: 3.7%
Dysgusia, Grade 2, # of Events [1]: 0
Dysgusia, Grade 2, % of Total [1]: 0.0%
Dysgusia, Grade 3, # of Events [1]: 0
Dysgusia, Grade 3, % of Total [1]: 0.0%
Fatigue, Any Grade, # of Events [1]: 4
Fatigue, Any Grade, % of Total [1]: 4.9%
Fatigue, Grade 1, # of Events [1]: 1
Fatigue, Grade 1, % of Total [1]: 1.2%
Fatigue, Grade 2, # of Events [1]: 2
Fatigue, Grade 2, % of Total [1]: 2.5%
Fatigue, Grade 3, # of Events [1]: 1
Fatigue, Grade 3, % of Total [1]: 1.2%
Fever, Any Grade, # of Events [1]: 2
Fever, Any Grade, % of Total [1]: 2.5%
Fever, Grade 1, # of Events [1]: 1
Fever, Grade 1, % of Total [1]: 1.2%
Fever, Grade 2, # of Events [1]: 1
Fever, Grade 2, % of Total [1]: 1.2%
Fever, Grade 3, # of Events [1]: 0
Fever, Grade 3, % of Total [1]: 0.0%
Loose stools, Any Grade, # of Events [1]: 2
Loose stools, Any Grade, % of Total [1]: 2.5%
Loose stools, Grade 1, # of Events [1]: 2
Loose stools, Grade 1, % of Total [1]: 2.5%
Loose stools, Grade 2, # of Events [1]: 0
Loose stools, Grade 2, % of Total [1]: 0.0%
Loose stools, Grade 3, # of Events [1]: 0
Loose stools, Grade 3, % of Total [1]: 0.0%
Nausea, Any Grade, # of Events [1]: 10
Nausea, Any Grade, % of Total [1]: 12.3%
Nausea, Grade 1, # of Events [1]: 8
Nausea, Grade 1, % of Total [1]: 9.9%
Nausea, Grade 2, # of Events [1]: 2
Nausea, Grade 2, % of Total [1]: 2.5%
Nausea, Grade 3, # of Events [1]: 0
Nausea, Grade 3, % of Total [1]: 0.0%
Skin Rash, Any Grade, # of Events [1]: 2
Skin Rash, Any Grade, % of Total [1]: 2.5%
Skin Rash, Grade 1, # of Events [1]: 2
Skin Rash, Grade 1, % of Total [1]: 2.5%
Skin Rash, Grade 2, # of Events [1]: 0
Skin Rash, Grade 2, % of Total [1]: 0.0%
Skin Rash, Grade 3, # of Events [1]: 0
Skin Rash, Grade 3, % of Total [1]: 0.0%
Urine Color Change, Any Grade, # of Events [1]: 2
Urine Color Change, Any Grade, % of Total [1]: 2.5%
Urine Color Change, Grade 1, # of Events [1]: 2
Urine Color Change, Grade 1, % of Total [1]: 2.5%
Urine Color Change, Grade 2, # of Events [1]: 0
Urine Color Change, Grade 2, % of Total [1]: 0.0%
Urine Color Change, Grade 3, # of Events [1]: 0
Urine Color Change, Grade 3, % of Total [1]: 0.0%
Vomiting, Any Grade, # of Events [1]: 14
Vomiting, Any Grade, % of Total [1]: 17.3%
Vomiting, Grade 1, # of Events [1]: 13
Vomiting, Grade 1, % of Total [1]: 16.0%
Vomiting, Grade 2, # of Events [1]: 1
Vomiting, Grade 2, % of Total [1]: 1.2%
Vomiting, Grade 3, # of Events [1]: 0
Vomiting, Grade 3, % of Total [1]: 0.0%
abdominal cramps, Any Grade, # of Events [1]: 6
abdominal cramps, Any Grade, % of Total [1]: 7.4%
abdominal cramps, Grade 1, # of Events [1]: 5
abdominal cramps, Grade 1, % of Total [1]: 6.2%
abdominal cramps, Grade 2, # of Events [1]: 1
abdominal cramps, Grade 2, % of Total [1]: 1.2%
abdominal cramps, Grade 3, # of Events [1]: 0
abdominal cramps, Grade 3, % of Total [1]: 0.0%
decreased appetite, Any Grade, # of Events [1]: 2
decreased appetite, Any Grade, % of Total [1]: 2.5%
decreased appetite, Grade 1, # of Events [1]: 1
decreased appetite, Grade 1, % of Total [1]: 1.2%
decreased appetite, Grade 2, # of Events [1]: 1
decreased appetite, Grade 2, % of Total [1]: 1.2%
decreased appetite, Grade 3, # of Events [1]: 0
decreased appetite, Grade 3, % of Total [1]: 0.0%
dizzyness, Any Grade, # of Events [1]: 2
dizzyness, Any Grade, % of Total [1]: 2.5%
dizzyness, Grade 1, # of Events [1]: 2
dizzyness, Grade 1, % of Total [1]: 2.5%
dizzyness, Grade 2, # of Events [1]: 0
dizzyness, Grade 2, % of Total [1]: 0.0%
dizzyness, Grade 3, # of Events [1]: 0
dizzyness, Grade 3, % of Total [1]: 0.0%
weakness, Any Grade, # of Events [1]: 5
weakness, Any Grade, % of Total [1]: 6.2%
weakness, Grade 1, # of Events [1]: 2
weakness, Grade 1, % of Total [1]: 2.5%
weakness, Grade 2, # of Events [1]: 3
weakness, Grade 2, % of Total [1]: 3.7%
weakness, Grade 3, # of Events [1]: 0
weakness, Grade 3, % of Total [1]: 0.0%
tolerability of dose escalation in patients (Phase I, 20 mg to 2000 mg/day): without drug-induced adverse effects; also recorded: well tolerated
dose-limiting toxicity [2]: No dose-limiting toxicity was observed; also recorded: No dose limiting toxicity was observed
maximum tolerated dose (MTD) [2]: not reached; also recorded: neither MTD nor RP2D has been reached
